# Patent US8481521B2, “Methods of treating cell proliferative disorders” (Rigel Pharmaceuticals, Inc., priority 2005, dated 2013)
# Several values for one entry are separate records, joined by “and”; a condition that tells them apart may be missing. Equal entries are not always repeated. Entries after “also recorded” stand apart in the source; their conditions may differ. Where two headings read alike, the source gives them in different places.
# Key:
# [1] = Conversion of prodrug to drug in microsome preparations; format: in vitro ADME, rat
# Text: (§1) Although phosphate-containing prodrugs suitable for oral administration are of interest, skilled artisans will appreciate that prodrugs including phosphate-containing progroups R^P can be administered via other routes of administration, as phosphatases are distributed throughout the body. […] Thus, the only requirement is that the particular phosphate-containing progroup R^P selected should be removable under the conditions of intended use.
# [2] = Stability under acidic and neutral conditions; format: physicochemical; conditions: 37° C.
# [3] = Pharmacokinetics / oral bioavailability in Sprague-Dawley rats; format: in vivo
# Method: Prodrug Compound 4 was tested for oral bioavailability. For the study, the prodrug was dissolved in various vehicles (e.g. PEG 400 solution and CMC suspension) for intravenous and oral dosing in the rats. […] Following administration of the prodrug and/or drug, plasma samples were obtained and extracted. The plasma concentrations of the prodrug and/or drug were determined by high performance liquid chromatography/tandem mass spectrometry (LC/MS/MS) methods. Pharmacokinetic analyses were performed based on the plasma concentration data. The pharmacokinetic parameters of interest include Clearance (CL), Volume of distribution at steady-state (Vss), terminal half-life (t1/2), and oral bioavailability (% F).
# Referring to FIG. 16, PK profiles are shown for IV and PO administration in Spraque-Dawley rats. For IV administration, Compound 4 was dissolved in PEG-400 and administered at a dose of 1 mg/kg.
# FIG. 17 summarizes the PK parameters for the study described in FIG. 4.
# FIG. 23 illustrates the absorption of prodrug Compound 4 from different vehicles.
# [4] = test system: phosphorylated histone H3 (phH3); assay: Phosphorylated histone H3 immunohistochemistry of MV4-11 tumor xenografts; format: in vivo, human; conditions: vs vehicle treated MV4-11 xenografts
# Method: Proliferation was assessed ex vivo in formalin fixed tumor sections from three randomly selected mice from this study using immunohistochemical staining of human-specific phosphorylated histone H3 (phH3) as a marker for tumor cell proliferation. Human phH3 expression was reduced in tumor sections in a dose-dependent manner following treatment with VII.
# [5] = test system: MV4-11 human acute myeloid leukemia cells; format: in vivo; conditions: for Hazard ratio: 40 mg/kg PO bid vs vehicle; for % Reduction from Vehicle Control, Bone Marrow / % Reduction from Vehicle Control, Peripheral blood: 40 mg/kg PO, bid daily
# Method: At the end of the acclimatization period for the animals (>3 weeks in this study), mice were pretreated with sterile filtered (using a […] syringe filter) Cyclophosphamide prepared in 0.9% sterile saline (Sigma, St Louis, Mo.) by intraperitoneal injection of 150 mg/kg/day for 2 days followed by a rest period of 72 hours prior to intravenous (i.v.) injection of leukemia cells via the lateral tail vein, as described below.
# On day 0 of the study, mice were inoculated once by intravenous tail vein injection of 5 or 10 million human MV4-11 leukemia cells resuspended in 100 microliters of fresh media as outlined in Table 1.
# After mice were inoculated with human MV4-11 cells (day 0), dosing began on day 17 of the study. Mice were dosed orally (PO) twice daily (bid) for the duration of the study with either Vehicle or 40 mg/kg VII at 5 mL/kg dose volume with a minimum separation of 8 hours between doses
# This study was designed to assess the effects of various doses of VII on tumor engraftment, disease progression, severity, and overall survival in a murine intravenous MV4-11 leukemia model using NOD-SCID immunocompromised mice as a host with cyclophosphamide pretreatment to enhance tumor engraftment.
# This study was conducted in an effort to confirm a previous efficacy data from study, but also to determine if 5 or 10 million cell inoculations would yield similar inconsistencies in tumor cell engraftment in the bone marrow and peripheral blood or alter the resultant mortality in these mice. Since a detectable level of engraftment in some animals was observed as early as 4 weeks post tumor cell injection in pilot studies and historical efficacy data had been determined with this regimen, animals were treated orally (PO) with vehicle or R945788 calcium salt at 40 mg/kg on a twice per day (bid) schedule, every day beginning approximately 2 weeks after tumor cell injection. Animals were continued on this regimen until euthanized or until the end of the study. In this experiment, all surviving mice were terminated when mice reached approximately 5 months of age (day 83 of the study) in order to limit the affects of the spontaneous thymoma development, which can be seen in NOD-SCID mice beginning at approximately 5-6 months of age.
# On day 0 (Aug. 12, 2005), mice were i.v. injected with human MV4-11 cells in fresh medium at 5 or 10 million cells per mouse via the lateral tail vein. By day 3 post MV4-11 cell injection (on Aug. 15, 2005), one mouse was excluded due to early death from excessive body weight loss prior to randomization or treatment, potentially due to cyclophosphamide treatment. Remaining animals were randomized into treatment groups using body weights and dosing began on day 17 post cell injection (Aug. 29, 2005). Mean body weights of groups 1-4 were 20.66±0.43, 20.23±0.41, 20.18±0.54, and 20.88±0.59, respectively. Treatment groups are outlined in Table 1:
# Overall disease severity was determined from a combination of body weight loss, clinical observations, necropsy findings, and quantitation of tumor cell engraftment in selected tissues. Mice were weighed 2-3 times weekly and percent weight change calculated. At the first indication of morbidity, hind limb paralysis with apparent wasting, severe cachexia or weight loss greater than 20%, involving lethargy, ruffled fur etc, as outlined in IACUC Protocol Rigel 6-2002 “Efficacy of Novel Chemotherapeutics in Human/Mouse Tumor Xenograft Models”, animals were removed from the study and euthanized. At sacrifice, animals were anesthetized with CO2 gas and blood was be collected by cardiocentesis. Blood from animal was transferred to K2EDTA coated Microtainer (lavendar top) tubes. Whole blood was placed indirectly on ice and processed for flow cytometric staining, as described in section below. To further assess disease severity, the location and description of palpable or suspected tumors on gross examination was carefully noted upon necropsy. […]
# [6] = Solubility of drug and phosphate prodrug; format: physicochemical; conditions: water solubility; read-out: Solubility
# Text: In contrast, Compound 4 is highly polar at neutral pH. Measured solubility values are consistent with the predicted cLogD values at pH=7.5.
# [7] = Stability of prodrug in rat plasma; format: in vitro ADME
# Text: as §1
# The presence of Phosphatase activity in rat plasma was confirmed using p-nitrophenyl phosphate—a known substrate for phosphatase.
# [8] = 5 million cells, 40 mg/kg, at sacrifice, listed as VII
smiles,measurement,setting,value
"COc1cc(Nc2ncc(F)c(Nc3ccc4c(n3)N(COP(=O)(O)O)C(=O)C(C)(C)O4)n2)cc(OC)c1OC [Compound 4, N4-(2,2-dimethyl-4-[(dihydrogenphosphonoxy)methyl]-3-oxo-5-pyrido[1,4]oxazin-6-yl)-5-fluoro-N2-(3,4,5-trimethoxyphenyl)-2,4-pyrimidinediamine]",conversion to drug Compound III in intestinal and hepatic microsomes,[1]; microsomes from a different source,metabolize to the active drug Compound III; also recorded: conversion of Compound 4 to Compound III was observed
same,conversion to drug Compound III in microsomal preparations,[1]; preparations obtained from Xenotech,failed to convert
same,stability under acidic and neutral conditions,[2],stable
same,prodrug in plasma after IV administration,[3]; 1 mg/kg IV in PEG-400,Rapid disappearance
same,absorption from different vehicles,"[3]; PEG-400, CMC, powder in hard gelatin capsules",absorbed equally well
same,plasma levels of drug metabolite Compound III after oral prodrug,[3]; PO in PEG-400,high levels
same,prodrug present systemically after oral administration,[3]; PO in PEG-400,no prodrug Compound 4 was present systemically
same,AUC/dose of drug Compound III exposure,[3]; oral Compound III 2.5 mg/kg or Compound 4 4 mg/kg in PEG-400,nearly identical
same,inhibition of phH3 staining,[4]; 20 mg/kg VII,53%
same,inhibition of phH3 staining,[4]; 40 mg/kg VII,71%
same,Median DOD (day of death),"[5]; 5E6 MV4-11 cells i.v., 40 mg/kg PO bid from day 17",79 days
same,Hazard ratio,[5]; 5E6 cells,3.5
same,% ILS (percent increase in life-span),"[5]; 5E6 cells, 40 mg/kg PO bid, vs vehicle median DOD 54 days",45%
same,animals necropsied showing visible or palpable tumors,"[5]; 5 million cells, 40 mg/kg",3 out of 11
same,animals terminated by study termination,"[5]; 5 million cells, 40 mg/kg",7 of 12
same,surviving mice at day 83,"[5]; 5 million cells, 40 mg/kg PO bid, group of 12",5
same,"% Reduction from Vehicle Control, Bone Marrow",[5]; 5 million cells,96%
same,"% Reduction from Vehicle Control, Peripheral blood",[5]; 5 million cells,99%
same,Bone Marrow: Mean % Tumor Cells (CD33+HLA+),[5]; [8],1% and 1.03%
same,Peripheral Blood: Mean % Tumor Cells (CD33+HLA+),[5]; [8],0.6% and 0.59%
same,Hazard ratio,[5]; 10E6 cells,7.6
same,animals necropsied showing visible or palpable tumors,"[5]; 10 million cells, 40 mg/kg",7 out of 13
same,animals terminated by study termination,"[5]; 10 million cells, 40 mg/kg",4 out of 13
same,surviving mice at day 83,"[5]; 10 million cells, 40 mg/kg PO bid, group of 13",9
same,"% Reduction from Vehicle Control, Bone Marrow",[5]; 10 million cells,59%
same,"% Reduction from Vehicle Control, Peripheral blood","[5]; 10 million cells, all samples",80%
same,Peripheral Blood: Mean % Tumor Cells (CD33+HLA+),"[5]; 10 million cells, 40 mg/kg, all samples",10.32%
same,Bone Marrow: Mean % Tumor Cells (CD33+HLA+),"[5]; 10 million cells, 40 mg/kg, at sacrifice, listed as VII",5% and 5.21%
same,mice survived to Day 83,"[5]; 10 million cells, 40 mg/kg, vehicle 0%",Over 50%
same,tolerability in NOD-SCID mice,"[5]; mouse, in vivo",well tolerated
same,solubility,[6],> 5000 µg/mL
same,stability in rat plasma (hydrolysis to Compound III),[7],metabolize to the active drug Compound III; also recorded: unstable
